Data reported in ChEMBL document CHEMBL5518215, “Unlocking Antibacterial Potential: Key-Site-Based Regulation of Antibacterial Spectrum of Peptides” (J Med Chem, 2024).

Tests used:
Escherichia coli [1] = assay: Antimicrobial activity against Escherichia coli 25922 assessed as bacterial killing measured after 16 hrs incubation; type: functional
Salmonella typhimurium [2] = assay: Antimicrobial activity against Salmonella typhimurium C7731 assessed as absence bacterial growth measured after 18 to 24 hrs incubation by NCCLS method; type: functional, Salmonella enterica subsp. enterica serovar Typhimurium; settings: Salmonella enterica, time 18-24 hrs
Staphylococcus aureus [3] = assay: Antimicrobial activity against Staphylococcus aureus 25923 assessed as bacterial killing measured after 16 hrs incubation; type: functional
Staphylococcus aureus [4] = assay: Antimicrobial activity against Methicillin-resistant Staphylococcus aureus 43300 assessed as bacterial killing measured after 16 hrs incubation; type: functional
Staphylococcus aureus [5] = assay: Antimicrobial activity against Staphylococcus aureus 29213 assessed as absence bacterial growth measured after 18 to 24 hrs incubation by NCCLS m; type: functional; settings: time 18-24 hrs
[6] = Cytotoxicity against human HEK-293T cells assessed as cell survival rate measured after 8 hrs by MTT assay; type: toxicity, cell-based
Acinetobacter baumannii [7] = assay: Antimicrobial activity against Acinetobacter baumannii 1.6769 assessed as bacterial killing measured after 16 hrs incubation; type: functional
Escherichia coli [8] = assay: Antimicrobial activity against Escherichia coli 25922 assessed as absence bacterial growth measured after 18 to 24 hrs incubation by NCCLS method; type: functional; settings: time 18-24 hrs
Escherichia coli [9] = assay: Antimicrobial activity against Escherichia coli 25922 assessed as absence bacterial growth measured after 18 to 24 hrs incubation in presence of NH4Cl by NCCLS method; type: functional; settings: time 18-24 hrs
Listeria monocytogenes [10] = assay: Antimicrobial activity against Listeria monocytogenes 1.10753 assessed as absence bacterial growth measured after 18 to 24 hrs incubation by NCCLS method; type: functional; settings: time 18-24 hrs
Enterococcus faecalis [11] = assay: Antimicrobial activity against Enterococcus faecalis 29212 assessed as absence bacterial growth measured after 18 to 24 hrs incubation by NCCLS method; type: functional; settings: time 18-24 hrs
[12] = system: Staphylococcus epidermidis; assay: Antimicrobial activity against Staphylococcus epidermidis 12228 assessed as bacterial killing measured after 16 hrs incubation; type: functional
Acinetobacter baumannii [13] = assay: Antimicrobial activity against Acinetobacter baumannii 1.6769 assessed as absence bacterial growth measured after 18 to 24 hrs incubation by NCCLS method; type: functional; settings: time 18-24 hrs
Bacillus cereus [14] = assay: Antimicrobial activity against Bacillus cereus 1.932 assessed as absence bacterial growth measured after 18 to 24 hrs incubation by NCCLS method; type: functional; settings: time 18-24 hrs
Escherichia coli [15] = assay: Antimicrobial activity against Escherichia coli 25922 assessed as absence bacterial growth measured after 18 to 24 hrs incubation in presence of NaCl by NCCLS method; type: functional; settings: time 18-24 hrs
Bacillus cereus [16] = assay: Antimicrobial activity against Bacillus cereus 1.932 assessed as bacterial killing measured after 16 hrs incubation; type: functional
Escherichia coli [17] = assay: Antimicrobial activity against Escherichia coli 25922 assessed as absence bacterial growth measured after 18 to 24 hrs incubation in presence of 12.5% serum by NCCLS method; type: functional; settings: time 18-24 hrs
Escherichia coli [18] = assay: Antimicrobial activity against Escherichia coli K88 assessed as bacterial killing measured after 16 hrs incubation; type: functional
Pseudomonas aeruginosa [19] = assay: Antimicrobial activity against Pseudomonas aeruginosa 27853 assessed as absence bacterial growth measured after 18 to 24 hrs incubation by NCCLS method; type: functional; settings: time 18-24 hrs
Staphylococcus aureus [20] = assay: Antimicrobial activity against Staphylococcus aureus 29213 assessed as absence bacterial growth measured after 18 to 24 hrs incubation by NCCLS method; type: functional; settings: time 18-24 hrs
[21] = system: Staphylococcus epidermidis; assay: Antimicrobial activity against Staphylococcus epidermidis 12228 assessed as absence bacterial growth measured after 18 to 24 hrs incubation by NCCLS method; type: functional; settings: time 18-24 hrs
Staphylococcus aureus [22] = assay: Antimicrobial activity against Methicillin-resistant Staphylococcus aureus 43300 assessed as absence bacterial growth measured after 18 to 24 hrs incubation by NCCLS method; type: functional; settings: time 18-24 hrs
[23] = Cytotoxicity against porcine IPEC-J2 cells assessed as cell survival rate measured after 8 hrs by MTT assay; type: toxicity, cell-based, Sus scrofa; settings: pig
Escherichia coli [24] = assay: Antimicrobial activity against Escherichia coli K88 assessed as absence bacterial growth measured after 18 to 24 hrs incubation by NCCLS method; type: functional; settings: time 18-24 hrs
Salmonella typhimurium [25] = assay: Antimicrobial activity against Salmonella typhimurium C7731 assessed as bacterial killing measured after 16 hrs incubation; type: functional, Salmonella enterica subsp. enterica serovar Typhimurium; settings: Salmonella enterica
Pseudomonas aeruginosa [26] = assay: Antimicrobial activity against Pseudomonas aeruginosa 27853 assessed as bacterial killing measured after 16 hrs incubation; type: functional
Escherichia coli [27] = assay: Antimicrobial activity against Escherichia coli 25922 assessed as absence bacterial growth measured after 18 to 24 hrs incubation in presence of 50% serum by NCCLS method; type: functional; settings: time 18-24 hrs
Escherichia coli [28] = assay: Antimicrobial activity against Escherichia coli 25922 assessed as absence bacterial growth measured after 18 to 24 hrs incubation in presence of KCl by NCCLS method; type: functional; settings: time 18-24 hrs
Escherichia coli [29] = assay: Antimicrobial activity against Escherichia coli 25922 assessed as absence bacterial growth measured after 18 to 24 hrs incubation in presence of FeCl3 by NCCLS method; type: functional; settings: time 18-24 hrs
Escherichia coli [30] = assay: Antimicrobial activity against Escherichia coli 25922 assessed as absence bacterial growth measured after 18 to 24 hrs incubation in presence of 25% serum by NCCLS method; type: functional; settings: time 18-24 hrs
Staphylococcus aureus [31] = assay: Antimicrobial activity against Staphylococcus aureus 29213 assessed as bacterial killing measured after 16 hrs incubation; type: functional
Salmonella typhimurium [32] = assay: Antimicrobial activity against Salmonella typhimurium 14028 assessed as bacterial killing measured after 16 hrs incubation; type: functional, Salmonella enterica subsp. enterica serovar Typhimurium; settings: Salmonella enterica
Listeria monocytogenes [33] = assay: Antimicrobial activity against Listeria monocytogenes 1.10753 assessed as bacterial killing measured after 16 hrs incubation; type: functional
[34] = Antimicrobial activity against Salmonella pullorum C7913 assessed as absence bacterial growth measured after 18 to 24 hrs incubation by NCCLS method; type: functional, Salmonella enterica subsp. enterica serovar Pullorum; settings: Salmonella enterica, time 18-24 hrs
Erythrocyte = assay: Hemolytic activity in human RBC at effective concentration measured after 1 hr by microplate reader analysis; type: toxicity, cell-based
[35] = Cytotoxicity against mouse RAW264.7 cells assessed as cell survival rate measured after 8 hrs by MTT assay; type: toxicity, cell-based
Escherichia coli [36] = assay: Antimicrobial activity against Escherichia coli 25922 assessed as absence bacterial growth measured after 18 to 24 hrs incubation in presence of MgCl2 by NCCLS method; type: functional; settings: time 18-24 hrs
Salmonella typhimurium [37] = assay: Antimicrobial activity against Salmonella typhimurium 14028 assessed as absence bacterial growth measured after 18 to 24 hrs incubation by NCCLS method; type: functional, Salmonella enterica subsp. enterica serovar Typhimurium; settings: Salmonella enterica, time 18-24 hrs
[38] = Antimicrobial activity against Salmonella pullorum C7913 assessed as bacterial killing measured after 16 hrs incubation; type: functional, Salmonella enterica subsp. enterica serovar Pullorum; settings: Salmonella enterica
Enterococcus faecalis [39] = assay: Antimicrobial activity against Enterococcus faecalis 29212 assessed as bacterial killing measured after 16 hrs incubation; type: functional
Escherichia coli [40] = assay: Antimicrobial activity against Escherichia coli 25922 assessed as absence bacterial growth measured after 18 to 24 hrs incubation in presence of ZnCl2 by NCCLS method; type: functional; settings: time 18-24 hrs
[41] = Hemolytic activity in human RBC at effective concentration at 128 uM measured after 1 hr by microplate reader relative to control; type: toxicity, cell-based, Erythrocyte; settings: human red blood cells (erythrocytes), read-out: Activity

## H-GKLWLKGVKLWLKGGKLWLKG-NH2
Escherichia coli [1]
  MBC: 1 µM
Salmonella typhimurium [2]
  MIC: 4 µM
Staphylococcus aureus [3]
  MBC: 4 µM
Staphylococcus aureus [4]
  MBC: 2 µM
Staphylococcus aureus [5]
  MIC: 2 µM
[6]
  IC50 at 8 h: > 64 µM
Acinetobacter baumannii [7]
  MBC: 4 µM
Escherichia coli [8]
  MIC: 1 µM
Escherichia coli [9]
  MIC: 1 µM
Listeria monocytogenes [10]
  MIC: > 32 µM
Enterococcus faecalis [11]
  MIC: 4 µM
[12]
  MBC: 4 µM
Acinetobacter baumannii [13]
  MIC: 1 µM
Bacillus cereus [14]
  MIC: 4 µM
Escherichia coli [15]
  MIC: 4 µM
Bacillus cereus [16]
  MBC: 4 µM
Escherichia coli [17]
  MIC: 16 µM
Escherichia coli [18]
  MBC: 0.5 µM
Pseudomonas aeruginosa [19]
  MIC: 4 µM
Staphylococcus aureus [20]
  MIC: 4 µM
[21]
  MIC: 2 µM
Staphylococcus aureus [22]
  MIC: 2 µM
[23]
  IC50 at 8 h: 8.73 µM
Escherichia coli [24]
  MIC: 0.5 µM
Salmonella typhimurium [25]
  MBC: 8 µM
Pseudomonas aeruginosa [26]
  MBC: 4 µM
Escherichia coli [27]
  MIC: > 32 µM
Escherichia coli [28]
  MIC: 1 µM
Escherichia coli [29]
  MIC: 1 µM
Escherichia coli [30]
  MIC: > 32 µM
Staphylococcus aureus [31]
  MBC: 4 µM
Salmonella typhimurium [32]
  MBC: 2 µM
Listeria monocytogenes [33]
  MBC: > 32 µM
[34]
  MIC: 0.5 µM
Erythrocyte
  HC10: 128 µM
[35]
  IC50 at 8 h: 61.3 µM
Escherichia coli [36]
  MIC: 4 µM
Salmonella typhimurium [37]
  MIC: 2 µM
[38]
  MBC: 0.5 µM
Enterococcus faecalis [39]
  MBC: 4 µM
Escherichia coli [40]
  MIC: 1 µM

## H-GKLWLKGWKLWLKGGKLWLKG-NH2
Escherichia coli [1]
  MBC: 1 µM
Salmonella typhimurium [2]
  MIC: 2 µM
Staphylococcus aureus [3]
  MBC: 8 µM
Staphylococcus aureus [4]
  MBC: 4 µM
Staphylococcus aureus [5]
  MIC: 4 µM
[6]
  IC50 at 8 h: 61.9 µM
Acinetobacter baumannii [7]
  MBC: 2 µM
Escherichia coli [8]
  MIC: 1 µM
Escherichia coli [9]
  MIC: 2 µM
Listeria monocytogenes [10]
  MIC: > 32 µM
Enterococcus faecalis [11]
  MIC: 2 µM
[12]
  MBC: 4 µM
Acinetobacter baumannii [13]
  MIC: 2 µM
Bacillus cereus [14]
  MIC: 1 µM
Escherichia coli [15]
  MIC: 2 µM
Bacillus cereus [16]
  MBC: 4 µM
Escherichia coli [17]
  MIC: 16 µM
Escherichia coli [18]
  MBC: 1 µM
Pseudomonas aeruginosa [19]
  MIC: 2 µM
Staphylococcus aureus [20]
  MIC: 2 µM
[21]
  MIC: 2 µM
Staphylococcus aureus [22]
  MIC: 2 µM
[23]
  IC50 at 8 h: 3.9 µM
Escherichia coli [24]
  MIC: 1 µM
Salmonella typhimurium [25]
  MBC: 8 µM
Pseudomonas aeruginosa [26]
  MBC: 4 µM
Escherichia coli [27]
  MIC: 32 µM
Escherichia coli [28]
  MIC: 1 µM
Escherichia coli [29]
  MIC: 1 µM
Escherichia coli [30]
  MIC: 32 µM
Staphylococcus aureus [31]
  MBC: 4 µM
Salmonella typhimurium [32]
  MBC: 4 µM
Listeria monocytogenes [33]
  MBC: > 32 µM
[34]
  MIC: 1 µM
Erythrocyte
  HC10: 32 µM
[35]
  IC50 at 8 h: 53.5 µM
Escherichia coli [36]
  MIC: 2 µM
Salmonella typhimurium [37]
  MIC: 2 µM
[38]
  MBC: 1 µM
Enterococcus faecalis [39]
  MBC: 4 µM
Escherichia coli [40]
  MIC: 1 µM

## H-IKLWLKGGKLWLKGGKLWLKG-NH2
Escherichia coli [1]
  MBC: 8 µM
Salmonella typhimurium [2]
  MIC: 8 µM
Staphylococcus aureus [3]
  MBC: > 32 µM
Staphylococcus aureus [4]
  MBC: > 32 µM
Staphylococcus aureus [5]
  MIC: > 32 µM
[6]
  IC50 at 8 h: > 64 µM
Acinetobacter baumannii [7]
  MBC: 8 µM
Escherichia coli [8]
  MIC: 4 µM
Escherichia coli [9]
  MIC: 8 µM
Listeria monocytogenes [10]
  MIC: > 32 µM
Enterococcus faecalis [11]
  MIC: > 32 µM
[12]
  MBC: > 32 µM
Acinetobacter baumannii [13]
  MIC: 8 µM
Bacillus cereus [14]
  MIC: > 32 µM
Escherichia coli [15]
  MIC: > 32 µM
Bacillus cereus [16]
  MBC: > 32 µM
Escherichia coli [17]
  MIC: > 32 µM
Escherichia coli [18]
  MBC: 2 µM
Pseudomonas aeruginosa [19]
  MIC: 8 µM
Staphylococcus aureus [20]
  MIC: > 32 µM
[21]
  MIC: > 32 µM
[41]
  hemolysis at 1 h, 128 µM: < 10%
Staphylococcus aureus [22]
  MIC: > 32 µM
[23]
  IC50 at 8 h: 31.4 µM
Escherichia coli [24]
  MIC: 2 µM
Salmonella typhimurium [25]
  MBC: 32 µM
Pseudomonas aeruginosa [26]
  MBC: 8 µM
Escherichia coli [27]
  MIC: > 32 µM
Escherichia coli [28]
  MIC: 4 µM
Escherichia coli [29]
  MIC: 16 µM
Escherichia coli [30]
  MIC: > 32 µM
Staphylococcus aureus [31]
  MBC: > 32 µM
Salmonella typhimurium [32]
  MBC: 8 µM
Listeria monocytogenes [33]
  MBC: > 32 µM
[34]
  MIC: 2 µM
Erythrocyte
  HC10: > 128 µM
[35]
  IC50 at 8 h: > 64 µM
Escherichia coli [36]
  MIC: > 32 µM
Salmonella typhimurium [37]
  MIC: 8 µM
[38]
  MBC: 2 µM
Enterococcus faecalis [39]
  MBC: > 32 µM
Escherichia coli [40]
  MIC: 16 µM
